Assay results taken from ChEMBL document CHEMBL4421717, “Antagonists and agonists of bitter taste receptors and uses thereof” (2012).
pEC50, pIC50: −log10 of the molar value. The source made the active and inactive calls. No cut-off for these calls is given here.

Key:
Type in all cases: functional, cell-based
[1] = molecular target: Taste receptor type 2 member 31 (Homo sapiens) (UniProt P59538); experiment: Antagonist activity at recombinant human N-terminal rat ST3 receptor-fused TAS2R44 expressed in HEK293T cells co-expressing Galpha16gust44 assessed as inhibition of aristolochic acids-induced intracellular calcium level at 100 uM by FLIPR assay
Sequence of Taste receptor type 2 member 31 (Homo sapiens) (P59538 whole entry, the tested form may be a part): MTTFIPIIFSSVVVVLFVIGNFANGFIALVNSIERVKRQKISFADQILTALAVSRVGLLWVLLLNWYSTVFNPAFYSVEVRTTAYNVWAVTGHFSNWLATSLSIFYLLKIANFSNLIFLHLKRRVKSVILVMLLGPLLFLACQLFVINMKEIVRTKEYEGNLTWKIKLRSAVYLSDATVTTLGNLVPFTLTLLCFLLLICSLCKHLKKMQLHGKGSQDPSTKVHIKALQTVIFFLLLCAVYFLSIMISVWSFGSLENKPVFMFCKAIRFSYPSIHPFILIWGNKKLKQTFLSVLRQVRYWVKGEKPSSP

[2] = molecular target: T1, Taste receptor type 2 member 16 (Homo sapiens) (UniProt Q9NYV7); experiment: Activity at recombinant human N-terminal rat ST3 receptor-fused TAS2R16 expressed in HEK293T cells co-expressing Galpha16gust44 assessed as effect on D-salicin-induced intracellular calcium level at 100 uM by FLIPR assay
T1 sequence (whole entry): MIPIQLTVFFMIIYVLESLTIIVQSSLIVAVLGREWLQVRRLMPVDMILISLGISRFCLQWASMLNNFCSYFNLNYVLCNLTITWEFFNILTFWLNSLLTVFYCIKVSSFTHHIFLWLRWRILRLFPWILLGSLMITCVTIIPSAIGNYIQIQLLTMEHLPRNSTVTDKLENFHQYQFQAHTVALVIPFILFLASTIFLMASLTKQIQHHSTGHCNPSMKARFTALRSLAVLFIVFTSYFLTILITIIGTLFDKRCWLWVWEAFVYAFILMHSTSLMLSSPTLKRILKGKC

[3] = molecular target: T2, Taste receptor type 2 member 3 (Homo sapiens) (UniProt Q9NYW6); experiment: Activity at recombinant human N-terminal rat ST3 receptor-fused TAS2R3 expressed in HEK293T cells co-expressing Galpha16gust44 assessed as effect on chloroquine-induced intracellular calcium level at 100 uM by FLIPR assay
T2 sequence (whole entry): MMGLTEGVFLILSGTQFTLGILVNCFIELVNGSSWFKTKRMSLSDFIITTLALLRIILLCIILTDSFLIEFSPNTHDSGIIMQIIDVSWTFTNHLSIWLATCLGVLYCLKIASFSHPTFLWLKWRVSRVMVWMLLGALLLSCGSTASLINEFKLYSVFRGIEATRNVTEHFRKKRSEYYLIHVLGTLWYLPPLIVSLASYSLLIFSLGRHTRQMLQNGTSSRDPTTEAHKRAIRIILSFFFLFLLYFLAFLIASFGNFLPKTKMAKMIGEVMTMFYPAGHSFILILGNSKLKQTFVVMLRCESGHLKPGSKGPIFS

[4] = molecular target: T3, Taste receptor type 2 member 8 (Homo sapiens) (UniProt Q9NYW2); experiment: Activity at recombinant human N-terminal rat ST3 receptor-fused TAS2R8 expressed in HEK293T cells co-expressing Galpha16gust44 assessed as effect on chloramphenicol-induced intracellular calcium level at 100 uM by FLIPR assay
T3 sequence (whole entry): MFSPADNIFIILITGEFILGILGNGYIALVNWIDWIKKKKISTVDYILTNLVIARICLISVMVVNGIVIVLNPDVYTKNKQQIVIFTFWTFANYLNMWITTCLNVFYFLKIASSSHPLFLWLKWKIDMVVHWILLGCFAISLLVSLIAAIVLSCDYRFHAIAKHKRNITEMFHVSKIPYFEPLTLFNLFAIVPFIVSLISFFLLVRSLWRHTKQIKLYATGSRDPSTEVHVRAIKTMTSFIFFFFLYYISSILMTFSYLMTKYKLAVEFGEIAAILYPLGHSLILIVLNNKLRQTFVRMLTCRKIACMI

[5] = molecular target: T4, Taste receptor type 2 member 46 (Homo sapiens, UniProt P59540); experiment: Antagonist activity at recombinant human N-terminal rat ST3 receptor-fused TAS2R46 expressed in HEK293T cells co-expressing Galpha16gust44 assessed as inhibition of 30 uM andrographolide-induced intracellular calcium level 100 uM by FLIPR assay
T4 sequence (P59540 whole entry): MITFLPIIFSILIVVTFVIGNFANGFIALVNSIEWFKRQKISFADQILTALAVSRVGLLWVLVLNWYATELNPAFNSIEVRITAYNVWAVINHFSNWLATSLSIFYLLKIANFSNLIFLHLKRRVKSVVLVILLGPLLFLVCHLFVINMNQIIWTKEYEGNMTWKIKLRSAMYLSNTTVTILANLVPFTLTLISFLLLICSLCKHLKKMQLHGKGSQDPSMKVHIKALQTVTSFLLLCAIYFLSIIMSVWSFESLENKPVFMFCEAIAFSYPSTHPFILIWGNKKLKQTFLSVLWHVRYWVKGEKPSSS

[6] = molecular target: T5, Taste receptor type 2 member 46 (Homo sapiens) (UniProt P59540); experiment: Antagonist activity at recombinant human N-terminal rat ST3 receptor-fused TAS2R46 expressed in HEK293T cells co-expressing Galpha16gust44 assessed as inhibition of picrotoxinin-induced intracellular calcium level at 100 uM by FLIPR assay
T5 sequence (whole entry): T4 sequence (P59540 whole entry)

[7] = molecular target: T4, Taste receptor type 2 member 46; experiment: Antagonist activity at recombinant human N-terminal rat ST3 receptor-fused TAS2R46 expressed in HEK293T cells co-expressing Galpha16gust44 assessed as inhibition of 300 uM denatonium benzoate-induced intracellular calcium level 100 uM by FLIPR assay
[8] = molecular target: T6, Taste receptor type 2 member 39 (Homo sapiens) (UniProt P59534); experiment: Activity at recombinant human N-terminal rat ST3 receptor-fused TAS2R39 expressed in HEK293T cells co-expressing Galpha16gust44 assessed as effect on epigallocatechin gallate-induced intracellular calcium level at 100 uM by FLIPR assay
T6 sequence (whole entry): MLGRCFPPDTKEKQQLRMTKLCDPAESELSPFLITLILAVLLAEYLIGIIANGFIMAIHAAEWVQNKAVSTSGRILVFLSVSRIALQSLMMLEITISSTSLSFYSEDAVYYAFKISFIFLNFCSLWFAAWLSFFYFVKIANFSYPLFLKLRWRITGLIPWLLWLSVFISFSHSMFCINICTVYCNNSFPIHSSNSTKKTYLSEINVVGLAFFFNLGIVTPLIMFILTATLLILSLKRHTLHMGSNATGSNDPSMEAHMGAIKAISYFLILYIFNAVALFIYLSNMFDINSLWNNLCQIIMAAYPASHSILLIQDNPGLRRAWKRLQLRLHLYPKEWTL

[9] = molecular target: T7, Taste receptor type 2 member 30 (Homo sapiens) (UniProt P59541); experiment: Agonist activity at recombinant human N-terminal rat ST3 receptor-fused TAS2R47 expressed in HEK293T cells co-expressing Galpha16gust44 assessed as effect on intracellular calcium level at 100 uM by FLIPR assay
T7 sequence (whole entry): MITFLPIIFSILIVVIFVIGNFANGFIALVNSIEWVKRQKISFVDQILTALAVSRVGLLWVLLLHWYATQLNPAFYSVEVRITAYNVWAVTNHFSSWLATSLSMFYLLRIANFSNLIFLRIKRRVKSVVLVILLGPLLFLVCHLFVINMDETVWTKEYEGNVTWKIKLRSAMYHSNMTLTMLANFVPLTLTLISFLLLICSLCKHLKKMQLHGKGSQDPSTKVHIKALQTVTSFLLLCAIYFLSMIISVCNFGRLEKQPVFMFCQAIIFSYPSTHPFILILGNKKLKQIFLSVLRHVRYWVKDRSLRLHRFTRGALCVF

[10] = molecular target: Taste receptor type 2 member 31 (Homo sapiens, UniProt P59538); experiment: Agonist activity at recombinant human N-terminal rat ST3 receptor-fused TAS2R44 expressed in HEK293T cells co-expressing Galpha16gust44 assessed as effect on intracellular calcium level by FLIPR assay
Sequence of Taste receptor type 2 member 31 (P59538 whole entry, the tested form may be a part): as the sequence (P59538 whole entry, the tested form may be a part) above

SMILES | inhibition [1] | Activity [2] | Activity [3] | Activity [4] | pIC50 [5] | inhibition [6] | pIC50 [7] | Activity [8] | Activity [9] | pEC50 [10]
C/C1=C\C[C@H](O)[C@@H](C)C[C@H]2OC(=O)[C@@H](C)C2CC1 (stereo not given in full) | Active | inactive | inactive | inactive | 4.35 | Active | 4.29 | inactive | – | –
C/C1=C\C[C@H](O)/C(C)=C/[C@H]2OC(=O)[C@@H](C)C2CC1 (stereo not given in full) | – | inactive | inactive | inactive | – | Active | – | inactive | inactive | 4.50
